Consider six compounds from patent US11013696B2, “Lipids and lipid compositions for the delivery of active agents” (Novartis AG, priority 2013, dated 2021).

A short description of data set [1]: Percent encapsulation of plasmid DNA in lipid nanoparticles (Quant-iT Ribogreen). It counts as physicochemical. As for the experimental part: All equipment and disposable supplies are certified free of RNase activity by the manufacturer or rendered RNase free by use of the RNaseZap reagent (LifeTechnologies). Plasmid is encapsulated at a cationic lipid amine to DNA phosphate (N:P) molar ratio of 4:1. Lipids (cationic lipid, DSPC, cholesterol and lipidated PEG) are dissolved in ethanol. The molar ratios are 40:10:38:2, respectively. The mixture is sonicated briefly, then gently agitated for 5 minutes and then maintained at 37° C. until use. Plasmid is exchanged into citrate buffer pH 6.0 by use of Amicon Ultra-15 centrifugal concentrators, and the final concentration is adjusted to 0.053 mg/ml and held at 37° C. until use. An equal volume of lipids in ethanol, plasmid in citrate buffer, and citrate buffer alone are drawn into disposable syringes. Tubing leading from syringes containing lipids and DNA are attached to the T junction, and tubing leading from the syringe containing citrate buffer alone is paired with the tubing exiting the T-junction over a collection vessel containing a stir bar on an active stir plate. Syringes are placed in a syringe pump set to expel contents at a flow rate of 1 ml per minute. The pump is activated, and the collected DNA in lipid nanoparticles is transferred to SnakeSkin dialysis tubing (10,000 MWCO, Thermo Scientific). Material is dialyzed against RNAse- and pyrogen-free 1× phosphate buffered saline overnight at 4° C.
Percent encapsulation of plasmid DNA in lipid nanoparticles is determined using the Quant-iT Ribogreen RNA Assay kit (Life Technologies). The LNP-DNA suspension is assayed in buffer (DNA outside the particle), and buffer plus Triton X-100 detergent (total DNA). The difference calculated is the DNA inside the particle. Prepare a 1000 ng/mL stock using unpackaged plasmid and use this to generate a standard curve (0 ng/ml, 15.63-1000 ng/ml) in TE and TE+0.75% Triton X-100. Prepare LNP-plasmid samples in TE buffer and TE buffer+0.75% Triton X-100 with appropriate dilution so that reading is in the range of standard curve (25 fold). In a 384-well plate (Costar non-treated #3573) add 0.04 ml of standard (in duplicate) or sample (in triplicate) per well. Dilute Ribogreen reagent 240-fold in TE buffer and add 0.06 ml per well. Mix contents of wells and measure fluorescence (excitation=480 nm, emission=520 nm). Subtract background values (no DNA) from standard and test sample values and determine the concentrations of DNA in the samples using the standard curves. Determine the percent encapsulation of the sample by dividing the difference in concentrations between sample+triton and sample in buffer alone by the sample+triton concentration.

A short description of data set [2]: Percent encapsulation of mRNA in lipid nanoparticles (Quant-iT Ribogreen). The data set is classed as physicochemical. To be noted: for % encapsulation mRNA Leptin: Table 2, leptin mRNA in LNP with the cationic lipid. The method, boiled down:
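LNPs made by T-junction mixing of ethanolic lipids (cationic lipid:DSPC:cholesterol:PEG lipid 40:10:38:2, N:P 4:1) with mRNA in citrate pH 5.8-6.0, then dialysed against PBS overnight at 4 °C. RiboGreen fluorescence (ex 480/em 520 nm) measured in TE ± 0.75% Triton X-100; encapsulation = (total − free)/total.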

In the case of `CCCCCCCCCCCCC(CCOC(=O)CCCCC(COC(=O)CCCCCCC)COC(=O)CCCCCCC)OC(=O)OCCCN(CC)CC` (stereo not shown) [Example 1, 2-(10-dodecyl-3-ethyl-8,14-dioxo-7,9,13-trioxa-3-azaoctadecan-18-yl)propane-1,3-diyl dioctanoate], the “% Encap.” value came to 93.5% in data set [1] (hLep plasmid); 94.3% in data set [1] (pDNA); 94.7% in data set [2] (FLuc mRNA); 97.3% in data set [2] (Gluc mRNA); 94.0% in data set [2] (hFIX mRNA); 97.1% in data set [2] (hLeptin mRNA). Moreover, the “% Encap.” value in data set [2] (mEPO mRNA) came to 95.8%. In addition, the “% encapsulation mRNA Leptin” value in data set [2] came out at 97.1%.

For `CCCCCCCCCCCCC(CCOC(=O)CCCCC(OCCCCCCCC)OCCCCCCCC)OC(=O)OCCCN(CC)CC` (stereo not shown) [Example 16, 3-(((3-(diethylamino)propoxy)carbonyl)oxy)pentadecyl 6,6-bis(octyloxy)hexanoate], the “% Encap.” value came out at 96.7% in data set [1] (hLep plasmid); 96.4% in data set [1] (pDNA); 96.8% in data set [2] (FLuc mRNA); 97.9% in data set [2] (Gluc mRNA); 96.9% in data set [2] (hFIX mRNA); 98.1% in data set [2] (hLeptin mRNA). Further, in data set [2] (mEPO mRNA), the “% Encap.” value turned out to be 97.9%. Also, the “% encapsulation mRNA Leptin” value in data set [2] is given as 97.7%.

Regarding `CCCCCCCCCCCCC(CCOC(=O)CCCCC(OCC(CC)CCCC)OCC(CC)CCCC)OC(=O)OCCCN(CC)CC` (stereo not shown) [Example 18, 3-(((3-(diethylamino)propoxy)carbonyl)oxy)pentadecyl 6,6-bis((2-ethylhexyl)oxy)hexanoate], the “% encapsulation mRNA Leptin” value in data set [2] is recorded as 97.1%.

`CCCCCCCCCC(=O)OCCC(CC(CCCCCCCC)CCCCCCCC)OC(=O)OCCCN(C)C` (stereo not shown) [Example 70, 3-(((3-(dimethylamino)propoxy)carbonyl)oxy)-5-octyltridecyl decanoate]: the “% encapsulation mRNA Leptin” value in data set [2] is 98.3%.

On to `CCCCC/C=C\C/C=C\CCCCCCCC(=O)OCC(COC(=O)CCCCCCC/C=C\C/C=C\CCCCC)OC(=O)CCC(CCCCCCCCCCCC)OC(=O)OCCCN(C)C` (stereo not shown) [Example 80, (9Z,9′Z,12Z,12′Z)-2-((4-(((3-(dimethylamino)propoxy)carbonyl)oxy)hexadecanoyl)oxy)propane-1,3-diyl bis(octadeca-9,12-dienoate)], for which the “% Encap.” value in data set [2] (FLuc mRNA) is listed as 85.3%; in data set [2] (mEPO mRNA), 96.2%.

For the compound `CCCCC/C=C\C/C=C\CCCCCCCCC(CCC(=O)OC(COC(=O)CCCCCCC)COC(=O)CCCCCCC)OC(=O)OCCCN(C)C` (stereo not shown) [Example 94, 2-(((13Z,16Z)-4-(((3-(dimethylamino)propoxy)carbonyl)oxy)docosa-13,16-dienoyl)oxy)propane-1,3-diyl dioctanoate], the “% Encap.” value in data set [1] (hLep plasmid) came to 95.0%; in data set [1] (pDNA), 89.3%; in data set [2] (FLuc mRNA), 93.7%; in data set [2] (Gluc mRNA), 95.9%; in data set [2] (hFIX mRNA), 96.9%; in data set [2] (hLeptin mRNA), 98.1%. In addition, in data set [2] (mEPO mRNA), the “% Encap.” value is on record as 96.4%. Further, the “% encapsulation mRNA Leptin” value in data set [2] came out at 98.1%.
